# Test results published in patent US6410480B1, “Herbicidally active 3-hydroxy-4-aryl-5-oxopyrazoline derivatives” (Syngenta Crop Protection, Inc., priority 1998, dated 2002).
# Legend:
# Type in all cases: in vivo
# [1] = system: Setaria; assay: Example B4: post-emergence herbicidal action of compounds of the invention; parameters: key: 1=complete damage; 9=no effect; Ratings of 1 to 4 (in particular 1 to 3) mean a good to very good herbicidal action; settings: 3- to 6-leaf stage, 250 g of active substance/ha, 3 weeks after application, scale 1-9
# Procedure: (§1) Monocotyledonous and dicotyledonous weeds are grown in standard soil in plastic pots under greenhouse conditions. The test substances are applied at the 3- to 6-leaf stage of the test plants. The test substances are applied (500 l of water/ha) as an aqueous suspension (prepared using a 25% wettable powder (Example F3, b)) or as an emulsion (prepared using a 25% emulsion concentrate (Example F1, c)) at an application rate of 250 g of active substance/ha. 3 weeks after the application, evaluation is carried out using a nine-level scale of ratings (1=complete damage, 9=no effect). Ratings of 1 to 4 (in particular 1 to 3) mean a good to very good herbicidal action. Test plants: Avena (Ave), Lolium (Lol), Setaria (Set).
# [2] = system: Avena; assay: as above; parameters: key: 1=complete damage; 9=no effect; Ratings of 1 to 4 (in particular 1 to 3) mean a good to very good herbicidal action; settings: 3- to 6-leaf stage, 250 g of active substance/ha, 3 weeks after application, scale 1-9
# Procedure: as §1
# [3] = system: Lolium; assay: as above; parameters: key: 1=complete damage; 9=no effect; Ratings of 1 to 4 (in particular 1 to 3) mean a good to very good herbicidal action; settings: 3- to 6-leaf stage, 250 g of active substance/ha, 3 weeks after application, scale 1-9
# Procedure: as §1
# [4] = system: Setaria; assay: Example B1: pre-emergence herbicidal action, comparison with prior art; parameters: key: 1=complete damage; 9=no effect; Ratings of 1 to 4 (in particular 1 to 3) mean a good to very good herbicidal action; settings: 500 g of ai/ha, 3 weeks after application, scale 1-9
# Source text: (§2) Monocotyledonous and dicotyledonous weeds are sown in standard soil in plastic pots. Immediately after sowing, the test substances are applied (500 l of water/ha) as an aqueous suspension (prepared using a 25% wettable powder (Example F3, b)) or as an emulsion (prepared using a 25% emulsion concentrate (Example F1, c)). The application rate is 500 g of active substance/ha. The test plants are subsequently grown under optimum conditions in a greenhouse. 3 weeks after the application, evaluation is carried out using a nine-level scale of ratings (1=complete damage, 9=no effect). Ratings of 1 to 4 (in particular 1 to 3) mean a good to very good herbicidal action. Test plants: Alopecurus (Alo), Avena (Ave), Lolium (Lot), Setaria (Set), Panicum (Pan), Sorghum (Sor), Digitaria (Dig), Echinocloa (Ech) and Brachiaria (Bra).
# [5] = system: Panicum; assay: as above; parameters: key: 1=complete damage; 9=no effect; Ratings of 1 to 4 (in particular 1 to 3) mean a good to very good herbicidal action; settings: 500 g of ai/ha, 3 weeks after application, scale 1-9
# Source text: as §2
# [6] = system: Echinocloa; assay: as above; parameters: key: 1=complete damage; 9=no effect; Ratings of 1 to 4 (in particular 1 to 3) mean a good to very good herbicidal action; settings: 500 g of ai/ha, 3 weeks after application, scale 1-9
# Source text: as §2
# [7] = system: Sorghum; assay: as above; parameters: key: 1=complete damage; 9=no effect; Ratings of 1 to 4 (in particular 1 to 3) mean a good to very good herbicidal action; settings: 500 g of ai/ha, 3 weeks after application, scale 1-9
# Source text: as §2
# [8] = system: Lolium; assay: as above; parameters: key: 1=complete damage; 9=no effect; Ratings of 1 to 4 (in particular 1 to 3) mean a good to very good herbicidal action; settings: 500 g of ai/ha, 3 weeks after application, scale 1-9
# Source text: as §2
# [9] = system: Setaria; assay: Example B2: post-emergence herbicidal action, comparison with prior art; parameters: key: 1=complete damage; 9=no effect; Ratings of 1 to 4 (in particular 1 to 3) mean a good to very good herbicidal action; settings: 3- to 6-leaf stage, 500 g of ai/ha, 3 weeks after application, scale 1-9
# Procedure: as §1, with “500” for “250”, “plants: Alopecurus (Alo),” for “plants:”, “(Set), Panicum (Pan), Sorghum (Sor), Digitaria (Dig), Echinocloa (Ech) and Brachiaria (Bra).” for “(Set).”
# [10] = system: Brachiaria; assay: as above; parameters: key: 1=complete damage; 9=no effect; Ratings of 1 to 4 (in particular 1 to 3) mean a good to very good herbicidal action; settings: 3- to 6-leaf stage, 500 g of ai/ha, 3 weeks after application, scale 1-9
# Procedure: as §1, with “500” for “250”, “plants: Alopecurus (Alo),” for “plants:”, “(Set), Panicum (Pan), Sorghum (Sor), Digitaria (Dig), Echinocloa (Ech) and Brachiaria (Bra).” for “(Set).”
# [11] = system: Avena; assay: as above; parameters: key: 1=complete damage; 9=no effect; Ratings of 1 to 4 (in particular 1 to 3) mean a good to very good herbicidal action; settings: 3- to 6-leaf stage, 500 g of ai/ha, 3 weeks after application, scale 1-9
# Procedure: as §1, with “500” for “250”, “plants: Alopecurus (Alo),” for “plants:”, “(Set), Panicum (Pan), Sorghum (Sor), Digitaria (Dig), Echinocloa (Ech) and Brachiaria (Bra).” for “(Set).”
# [12] = system: Panicum; assay: as above; parameters: key: 1=complete damage; 9=no effect; Ratings of 1 to 4 (in particular 1 to 3) mean a good to very good herbicidal action; settings: 3- to 6-leaf stage, 500 g of ai/ha, 3 weeks after application, scale 1-9
# Procedure: as §1, with “500” for “250”, “plants: Alopecurus (Alo),” for “plants:”, “(Set), Panicum (Pan), Sorghum (Sor), Digitaria (Dig), Echinocloa (Ech) and Brachiaria (Bra).” for “(Set).”
# [13] = system: Echinocloa; assay: as above; parameters: key: 1=complete damage; 9=no effect; Ratings of 1 to 4 (in particular 1 to 3) mean a good to very good herbicidal action; settings: 3- to 6-leaf stage, 500 g of ai/ha, 3 weeks after application, scale 1-9
# Procedure: as §1, with “500” for “250”, “plants: Alopecurus (Alo),” for “plants:”, “(Set), Panicum (Pan), Sorghum (Sor), Digitaria (Dig), Echinocloa (Ech) and Brachiaria (Bra).” for “(Set).”
# [14] = system: Sorghum; assay: as above; parameters: key: 1=complete damage; 9=no effect; Ratings of 1 to 4 (in particular 1 to 3) mean a good to very good herbicidal action; settings: 3- to 6-leaf stage, 500 g of ai/ha, 3 weeks after application, scale 1-9
# Procedure: as §1, with “500” for “250”, “plants: Alopecurus (Alo),” for “plants:”, “(Set), Panicum (Pan), Sorghum (Sor), Digitaria (Dig), Echinocloa (Ech) and Brachiaria (Bra).” for “(Set).”
# [15] = system: Digitaria; assay: as above; parameters: key: 1=complete damage; 9=no effect; Ratings of 1 to 4 (in particular 1 to 3) mean a good to very good herbicidal action; settings: 3- to 6-leaf stage, 500 g of ai/ha, 3 weeks after application, scale 1-9
# Procedure: as §1, with “500” for “250”, “plants: Alopecurus (Alo),” for “plants:”, “(Set), Panicum (Pan), Sorghum (Sor), Digitaria (Dig), Echinocloa (Ech) and Brachiaria (Bra).” for “(Set).”
# [16] = system: Lolium; assay: as above; parameters: key: 1=complete damage; 9=no effect; Ratings of 1 to 4 (in particular 1 to 3) mean a good to very good herbicidal action; settings: 3- to 6-leaf stage, 500 g of ai/ha, 3 weeks after application, scale 1-9
# Procedure: as §1, with “500” for “250”, “plants: Alopecurus (Alo),” for “plants:”, “(Set), Panicum (Pan), Sorghum (Sor), Digitaria (Dig), Echinocloa (Ech) and Brachiaria (Bra).” for “(Set).”
# [17] = system: Setaria; assay: Example B3: pre-emergence herbicidal action of compounds of the invention; parameters: key: 1=complete damage; 9=no effect; Ratings of 1 to 4 (in particular 1 to 3) mean a good to very good herbicidal action; settings: 500 g of active substance/ha, 3 weeks after application, scale 1-9
# Procedure: as §1, with “pots. Directly after sowing,” for “pots under greenhouse conditions. The test substances are applied at”, “the” for “the 3- to 6-leaf stage of the test plants. The”, “c)). The” for “c)) at an”, “is 500” for “of 250”, “substance/ha. The test plants are subsequently grown under optimum conditions in a greenhouse” for “substance/ha.”
# [18] = system: Avena; assay: as above; parameters: key: 1=complete damage; 9=no effect; Ratings of 1 to 4 (in particular 1 to 3) mean a good to very good herbicidal action; settings: 500 g of active substance/ha, 3 weeks after application, scale 1-9
# Procedure: as §1, with “pots. Directly after sowing,” for “pots under greenhouse conditions. The test substances are applied at”, “the” for “the 3- to 6-leaf stage of the test plants. The”, “c)). The” for “c)) at an”, “is 500” for “of 250”, “substance/ha. The test plants are subsequently grown under optimum conditions in a greenhouse” for “substance/ha.”
# [19] = system: Lolium; assay: as above; parameters: key: 1=complete damage; 9=no effect; Ratings of 1 to 4 (in particular 1 to 3) mean a good to very good herbicidal action; settings: 500 g of active substance/ha, 3 weeks after application, scale 1-9
# Procedure: as §1, with “pots. Directly after sowing,” for “pots under greenhouse conditions. The test substances are applied at”, “the” for “the 3- to 6-leaf stage of the test plants. The”, “c)). The” for “c)) at an”, “is 500” for “of 250”, “substance/ha. The test plants are subsequently grown under optimum conditions in a greenhouse” for “substance/ha.”
# [20] = system: Alopecurus; assay: Example B2: post-emergence herbicidal action, comparison with prior art; settings: 3- to 6-leaf stage, 500 g of ai/ha, 3 weeks after application, scale 1-9
# Procedure: as §1, with “500” for “250”, “plants: Alopecurus (Alo),” for “plants:”, “(Set), Panicum (Pan), Sorghum (Sor), Digitaria (Dig), Echinocloa (Ech) and Brachiaria (Bra).” for “(Set).”
# [21] = system: Brachiaria; assay: Example B1: pre-emergence herbicidal action, comparison with prior art; settings: 500 g of ai/ha, 3 weeks after application, scale 1-9
# Source text: as §2
# [22] = system: Avena; assay: as above; settings: 500 g of ai/ha, 3 weeks after application, scale 1-9
# Source text: as §2
# [23] = system: Alopecurus; assay: as above; settings: 500 g of ai/ha, 3 weeks after application, scale 1-9
# Source text: as §2
# [24] = system: Digitaria; assay: as above; settings: 500 g of ai/ha, 3 weeks after application, scale 1-9
# Source text: as §2
Structure (SMILES),"Post-emergence action, Set (rating) [1]","Post-emergence action, Ave (rating) [2]","Post-emergence action, Lol (rating) [3]","Pre-emergence action, Set (rating) [17]","Pre-emergence action, Ave (rating) [18]","Pre-emergence action, Lol (rating) [19]",other results
Cc1cc(C)c(-c2c(O)n3n(c2=O)CCOCC3)c(C)c1 [1.001],2,1,1,1,4,1,"Pre-emergence action, Set (rating) [4]: 1; Pre-emergence action, Pan (rating) [5]: 1; Pre-emergence action, Ech (rating) [6]: 1; Pre-emergence action, Sor (rating) [7]: 1; Pre-emergence action, Lol (rating) [8]: 1; Post-emergence action, Set (rating) [9]: 1; Post-emergence action, Bra (rating) [10]: 1; Post-emergence action, Ave (rating) [11]: 1; Post-emergence action, Pan (rating) [12]: 1; Post-emergence action, Ech (rating) [13]: 1; Post-emergence action, Sor (rating) [14]: 1; Post-emergence action, Dig (rating) [15]: 1; Post-emergence action, Lol (rating) [16]: 1; Post-emergence action, Alo (rating) [20]: 2; Pre-emergence action, Bra (rating) [21]: 2; Pre-emergence action, Ave (rating) [22]: 4; Pre-emergence action, Alo (rating) [23]: 3; Pre-emergence action, Dig (rating) [24]: 2"
CCc1cc(C)cc(C)c1-c1c(O)n2n(c1=O)CCOCC2 [1.004],–,–,–,2,1,1,–
CCc1cc(C)cc(C)c1-c1c(OC(=O)C(C)(C)C)n2n(c1=O)CCOCC2 [1.005],2,1,2,–,–,–,–
CCc1cc(C)cc(CC)c1-c1c(OC(=O)C(C)(C)C)n2n(c1=O)CCOCC2 [1.008],–,–,–,1,1,1,–
C#Cc1cc(C)cc(C)c1-c1c(OC(=O)C(C)(C)C)n2n(c1=O)CCOCC2 [1.016],2,3,2,–,–,–,–
